Measurements reported in US9365520B2, “Heterocyclic compound” (Takeda Pharmaceutical Company Limited, priority 2014, dated 2016).

What was measured:
[1] = system: IL-17A gene expression; assay: Effect on IL-23-induced cytokine expression in mice; assay type: in vivo, Balb/c mice; conditions: Mus musculus, 24 h, 30 min before and 8 hr after IL-23, ear tissue, versus the negative control group, read-out: percent inhibition of IL-17A gene expression
Description: Effect on IL-23-Induced Cytokine Expression in Mice
A mouse IL-23 solution (500 ng/10 μL, prepared by Takeda Pharmaceutical Company Limited) or PBS (10 μL, negative control group) was administered intradermally in the ear of Balb/c mice (Charles River Japan, male, 7 weeks old). Twenty-four hr after administration, the ear was resected under isoflurane anesthesia. The test compound was suspended in 0.5% methylcellulose and administered orally 30 min before and 8 hr after IL-23 administration.
RNA extraction from the ear tissue and quantitative PCR were performed as follows. Specifically, ear tissue 5 mm in diameter was punched from an area of the resected ear centering on the IL-23 injection site, and the tissue was immersed in RNAlater (QIAGEN) for at least 18 hr. The RNAlater-treated ear tissue was homogenized in 350 μL of RLT buffer (RNeasy mini kit, QIAGEN) and treated (55° C., 10 min) with Proteinase K (QIAGEN). Total RNA was then extracted according to the RNeasy mini kit protocol. The RNA thus obtained was then reverse transcribed into cDNA using the High-Capacity RNA-to-cDNA kit (Applied Biosystems), and the amount of each gene expressions was measured by real-time PCR (Viia7™, Applied Biosystems). The PCR buffer used was TaqMan Fast Advanced Master Mix (Applied Biosystems), and TaqMan Gene Expression Assays (Applied Biosystems) Mm00439618_m1 (IL-17A) and 4352341E (β-actin) were used for each gene detection. The IL-17A gene expression level was normalized to the β-actin gene expression level, and the percent inhibition of IL-17A gene expression with the test compound was then calculated.
The results (percent inhibition of IL-17A gene expression with oral administration of the test compound) measured by the above-mentioned method are shown in Table 9.

[2] = system: IL-23-induced mouse psoriasis model; assay: Effect in an IL-23-induced mouse psoriasis model; assay type: in vivo, Balb/c mice; conditions: versus the negative control group
Description: Effect in an IL-23-Induced Mouse Psoriasis Model
Mouse IL-23 (500 ng/15 μL, R&D) or PBS (15 μL, negative control group) was administered intradermally in the ear of Balb/c mice (Charles River Japan, male, 7 weeks old) 5 times every other days. Seven hr after IL-23 administration at 8 days after the initial administration (final administration), the mice were anesthetized with isoflurane, and ear thickness was measured with calipers. After the ear thickness was measured, the ear was resected, tissue 8 mm in diameter was punched from an area centering on the IL-23 injection site, and the tissue was weighed. The punched ear tissue was cut in half, and one half was immersion-fixed in 10% neutral buffer formalin solution for use in histopathological evaluation. The other half was immersed in RNAlater (QIAGEN) for at least 18 hr for use in an evaluation of the IL-17A mRNA expression level. The test compound was suspended in 0.5% methylcellulose and administered orally twice daily on consecutive days from 30 min before the initial IL-23 administration to 30 min before the final IL-23 administration.
The change in ear thickness in this model was evaluated by calculating the difference in measured thickness between before IL-23 administration and 7 hr after the final IL-23 administration. In addition, the formalin-fixed tissue was embedded and sectioned, then stained with hematoxylin-eosin. The degree of acanthosis was then evaluated qualitatively by microscopy (classified with a score of 0 to 4). RNA extraction from the ear tissue and quantitative PCR were performed as follows. As described above, ear tissue treated with RNAlater (QIAGEN) was homogenized in 350 μL of RLT buffer (RNeasy mini kit, QIAGEN) and treated (55° C., 10 min) with Proteinase K (QIAGEN). Total RNA was then extracted according to the RNeasy mini kit protocol. The RNA thus obtained was reverse transcribed into cDNA using the High-Capacity RNA-to-cDNA kit (Applied Biosystems), and the expression of each gene was measured by real-time PCR (Viia7™, Applied Biosystems). The PCR buffer used was TaqMan Fast Advanced Master Mix (Applied Biosystems), and TaqMan Gene Expression Assays (Applied Biosystems) Mm00439618_ml (IL-17A) and 4352341E (β-actin) were used to detect the genes. The IL-17A gene expression level was normalized to the β-actin gene expression level, and the percent inhibition of IL-17A gene expression with the test compound was then calculated.
The results (percent inhibition of ear thickness, acanthosis score and IL-17A gene expression with oral administration of the test compound) measured by the above-mentioned method are shown in Table 10.

[3] = system: mouse EAE model; assay: Effect in a mouse EAE model; assay type: in vivo, C57BL/6J mice; conditions: 3 mg/kg oral; integration value of the clinical score for 28 days; versus the negative control group
Description: Effect in a Mouse EAE Model
. C57BL/6J mice (10 weeks old, female, Charles River Japan) were grouped based on the body weight, and the MOG emulsion was intradermally administered at two point of the joint of dorsal hindlimb so that the dose was 100 μL/site, 200 μL/mouse. In addition, Pertussis toxin (Merck) was intraperitoneally administered twice on the sensitization day and 2 days thereafter in the dose of 400 ng/200 μL/mouse. The body weight was measured twice a week before onset and everyday (excluding holiday) after onset from the sensitization day. The clinical score was evaluated by the following standard scores of 0 to 5 (0: normal, 0.5: partial paralysis of tail, 1: complete paralysis of tail, 2: partial paralysis of hindlimb, 3: paralysis of lower body, 4: partial paralysis of forelimb, 5: paralysis of both forelimbs or death) by observation everyday (excluding holiday) after the beginning of onset.
The percent inhibition of the clinical score of the test compound administration group relative to that of the control group was calculated using integration value of the clinical score for 28 days.
The results (percent inhibition of clinical score with oral administration of the test compound) measured by the above-mentioned method are shown in Table 12.

[4] = system: T cell-transferred mouse colitis model; assay: Effect in a T cell-transferred mouse colitis model; assay type: in vivo, mice; conditions: 3 mg/kg oral twice daily; 21 days after cell transfer; versus the negative control group
Description: Effect in a T Cell-Transferred Mouse Colitis Model
Balb/c mice (Charles River Japan, female, 8 weeks old) were euthanized, and the spleens were resected, mashed in mesh, and passed through cell strainer to prepare a suspension of splenic cells. The mononuclear cell fraction in the splenic cells was isolated by density-gradient centrifugation, and subjected to hemolysis treatment with ammonium chloride buffer solution (Immuno-Biological Laboratories, Co., Ltd.). The naive T-cells were purified using CD4+CD62L+ T Cell Isolation Kit II (Miltenyi Biotec). The naive T-cells (2×10^5 cells/mouse) were intravenously transferred into SCIDmice (CLEA Japan, female, 8 weeks old). The compound was suspended in 0.5% methyl cellulose, and the suspension was orally administered twice daily on consecutive days from the same evening of the cell transfer. The mice were blinded 20 days after the cell transfer, and the symptom of the stool on floorcloth under blind was evaluated by scores of 1 to 4 (1: normal, 2: loose stool, 3: diarrhea (formed), 4: diarrhea (unformed)) 21 days after the cell transfer. […] The large intestine was washed with saline, and the weight was measured.
The results (percent inhibition of intestinal tract weight and diarrhea score with oral administration of the test compound) measured by the above-mentioned method are shown in Table 11.

Row | SMILES | inhibition in vivo at 10 mg/kg ([1]; 10 mg/kg oral) [%] | percent inhibition of IL-17A expression ([2]; 1 mg/kg oral twice daily) [%] | percent inhibition of acanthosis score ([2]; 1 mg/kg oral twice daily) [%] | percent inhibition of ear thickness ([2]; 1 mg/kg oral twice daily) [%] | inhibition in vivo at 3 mg/kg ([1]; 3 mg/kg oral) [%] | percent inhibition of IL-17A expression ([2]; 3 mg/kg oral twice daily) [%] | percent inhibition of acanthosis score ([2]; 3 mg/kg oral twice daily) [%] | percent inhibition of ear thickness ([2]; 3 mg/kg oral twice daily) [%] | percent inhibition of clinical score [3] [%] | percent inhibition of diarrhea score [4] [%] | percent inhibition of intestinal tract weight [4] [%]
1 | COc1ccc2c(n1)CCN(C(=O)[C@H]1C[C@@H](C(=O)O)C1)[C@H]2C(=O)Nc1cc(F)c2c(c1)CCC2(C)C [Example 10] | 87 | 91 | 47 | 52 |  |  |  |  |  |  | 
2 | COc1ccc2c(n1)CCN(C(=O)[C@H]1C[C@@H](CC(=O)O)C1)[C@H]2C(=O)Nc1cc(F)c2c(c1)CCC2(C)C [Example 15, (cis-3-(((5R)-5-((7-fluoro-1,1-dimethyl-2,3-dihydro-1H-inden-5-yl)carbamoyl)-2-methoxy-7,8-dihydro-1,6-naphthyridin-6(5H)-yl)carbonyl)cyclobutyl)acetic acid] |  |  |  |  | 99 | 93 | 53 | 61 | 64 | 81 | 58
